In patent publication US11000033B2, “Ketone or oxime compound, and herbicide” (NISSAN CHEMICAL CORPORATION, priority 2014, dated 2021):

Key:
Type in all cases: in vivo
soybean = test: Test Example 5: effect on crop by foliage application, plastic box (symbol d); settings: 320 g/ha, 3 weeks after application
How it was run: (§1)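 Greenhouse culture at 25° C. to 30° C. followed spot-like sowing into sterilized diluvial soil, with seed covered by roughly 1.5 cm of soil.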

Stellaria media = test: Test Example 4: herbicidal effect by soil treatment (symbol P); settings: application herbicide amount 320 g/ha
How it was run: (§2)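 Seeds were sown in sterilized diluvial soil, covered with about 1.5 cm of soil, and the soil surface was sprayed with a water-diluted emulsion of the compound at a predetermined rate. Plants grew in a greenhouse at 25° C. to 30° C.; effects were scored visually 3 weeks after application.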

beet = test: Test Example 5: effect on crop by foliage application, plastic box (symbol f); settings: 320 g/ha, 3 weeks after application
How it was run: as §1

rice = test: Test Example 4: effect on crop by soil treatment (symbol b); settings: application herbicide amount 320 g/ha
How it was run: (§3)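 Soil-treatment setup: crop and weed seeds were spot-sown into sterilized diluvial soil, then buried beneath approximately 1.5 cm of it, and the boxes were housed in a 25–30° C. greenhouse.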

Cyperus difformis = test: Test Example 3: herbicidal effect by foliage application, Wagner pot (symbol E); settings: application herbicide amount 320 g/ha
How it was run: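 Scoring took place 3 weeks after application, using fixed criteria. Plants had been raised from seed for 14 days at 25 to 30 °C in submerged alluvial soil before a diluted emulsion of the test compound was sprayed uniformly on the leaves.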

Setaria viridis = test: Test Example 4: herbicidal effect by soil treatment (symbol G); settings: application herbicide amount 320 g/ha
How it was run: as §2

Digitaria ciliaris = test: Test Example 5: herbicidal effect by foliage application, plastic box (symbol F); settings: 320 g/ha, 3 weeks after application
How it was run: (§4)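 Emulsion formulation, diluted with water to the intended rate, was applied uniformly to leaves by small sprayer. Recipients were 14-day greenhouse-grown seedlings (25° C. to 30° C.). Assessment followed at 3 weeks.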

Apera spica-venti = test: Test Example 4: herbicidal effect by soil treatment (symbol L); settings: application herbicide amount 320 g/ha
How it was run: as §2

Alopecurus myosuroides = test: Test Example 5: herbicidal effect by foliage application, plastic box (symbol J); settings: 320 g/ha, 3 weeks after application
How it was run: as §4

wheat [1] = test: Test Example 4: effect on crop by soil treatment (symbol e); settings: application herbicide amount 320 g/ha
How it was run: as §3

[2] = system: directly sowed rice plant; test: Test Example 3: effect on crop by foliage application, Wagner pot (symbol b); settings: application herbicide amount 320 g/ha
How it was run: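 Steps: fill a 1/10000-are Wagner pot with alluvial soil; add water and mix to submerge at 0.1–0.5 cm depth; sow rice plus Echinochloa crus-galli var. crus-galli, Leptochloa chinensis and Cyperus difformis; grow in a 25–30 °C greenhouse.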

Abutilon theophrasti = test: Test Example 4: herbicidal effect by soil treatment (symbol M); settings: application herbicide amount 320 g/ha
How it was run: as §2

Amaranthus retroflexus = test: Test Example 4: herbicidal effect by soil treatment (symbol N); settings: application herbicide amount 320 g/ha
How it was run: as §2

Avena fatua = test: Test Example 5: herbicidal effect by foliage application, plastic box (symbol I); settings: 320 g/ha, 3 weeks after application
How it was run: as §4

Monochoria vaginalis = test: Test Example 2: herbicidal activity, application during weed generation in submerged conditions (symbol C); settings: Table 23; application herbicide amount 320 g/ha; grade 0-5 by criteria of Test Example 1
How it was run: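 Read-out: herbicidal effect on each species rated on a visual scale 3 weeks after treatment. Plants were raised together from seed in flooded alluvial soil (4 cm water) at 25° C. to 30° C. and treated at one to two leaves by water-surface application of diluted emulsion.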

wheat [3] = test: Test Example 5: effect on crop by foliage application, plastic box (symbol e); settings: 320 g/ha, 3 weeks after application
How it was run: as §1

## CON=C(CC1CC(O)=C(c2c(C)cc(C#C[Si](C)(C)C)cc2C)C1=O)C(C)C (centres unmarked) [9-005]
soybean
  d: soybean, effect on crop grade: 0 (Herbicidal ratio of 5% or lower (almost no effect))
Stellaria media
  Herbicidal effect grade, P: Stellaria media: 0 (Herbicidal ratio of 5% or lower (almost no effect))
beet
  f: beet, effect on crop grade: 0 (Herbicidal ratio of 5% or lower (almost no effect))
rice
  Effect on crop grade, b: directly sowed rice plant: 1 (Herbicidal ratio of 5% or higher and lower than 20%)
Cyperus difformis; Table 24
  E herbicidal effect grade: 2 (Herbicidal ratio of 20% or higher and lower than 40%)
Setaria viridis
  Herbicidal effect grade, G: Setaria viridis: 0 (Herbicidal ratio of 5% or lower (almost no effect))
Digitaria ciliaris
  F: Digitaria ciliaris, herbicidal effect grade: 4 (Herbicidal ratio of 70% or higher and lower than 90%)
Apera spica-venti
  Herbicidal effect grade, L: Apera spica-venti: 1 (Herbicidal ratio of 5% or higher and lower than 20%)
Alopecurus myosuroides
  J: Alopecurus myosuroides, herbicidal effect grade: 4 (Herbicidal ratio of 70% or higher and lower than 90%)
Wheat [1]
  Effect on crop grade, e: wheat: 0 (Herbicidal ratio of 5% or lower (almost no effect))
[2]; Table 24
  b (directly sowed rice plant) effect on crop grade: 4 (Herbicidal ratio of 70% or higher and lower than 90%)
Abutilon theophrasti
  Herbicidal effect grade, M: Abutilon theophrasti: 0 (Herbicidal ratio of 5% or lower (almost no effect))
Amaranthus retroflexus
  Herbicidal effect grade, N: Amaranthus retroflexus: 0 (Herbicidal ratio of 5% or lower (almost no effect))
Avena fatua
  I: Avena fatua, herbicidal effect grade: 5 (Herbicidal ratio of 90% or more (almost completely withered))
Monochoria vaginalis
  Herbicidal effect grade, C: Monochoria vaginalis: 0 (Herbicidal ratio of 5% or lower (almost no effect))
Wheat [3]
  e: wheat, effect on crop grade: 0 (Herbicidal ratio of 5% or lower (almost no effect))

## CON=C(C)CC1CC(OC(=O)C(C)Oc2ccccc2)=C(c2c(C)cc(C)cc2C)C1=O (centres unmarked) [1-060]
soybean
  d: soybean, effect on crop grade: 4 (Herbicidal ratio of 70% or higher and lower than 90%)
Stellaria media
  P (Stellaria media) herbicidal effect grade: 0 (Herbicidal ratio of 5% or lower (almost no effect))
beet
  f: beet, effect on crop grade: 0 (Herbicidal ratio of 5% or lower (almost no effect))
rice
  b (directly sowed rice plant) effect on crop grade: 5 (Herbicidal ratio of 90% or more (almost completely withered))
Cyperus difformis
  herbicidal effect on E, grade 0-5: 5 (Herbicidal ratio of 90% or more (almost completely withered))
Setaria viridis
  G (Setaria viridis) herbicidal effect grade: 5 (Herbicidal ratio of 90% or more (almost completely withered))
Digitaria ciliaris
  F: Digitaria ciliaris, herbicidal effect grade: 5 (Herbicidal ratio of 90% or more (almost completely withered))
Apera spica-venti
  L (Apera spica-venti) herbicidal effect grade: 5 (Herbicidal ratio of 90% or more (almost completely withered))
Alopecurus myosuroides
  J: Alopecurus myosuroides, herbicidal effect grade: 5 (Herbicidal ratio of 90% or more (almost completely withered))
Wheat [1]
  e (wheat) effect on crop grade: 2 (Herbicidal ratio of 20% or higher and lower than 40%)
[2]
  effect on crop b (directly sowed rice plant), grade 0-5: 5 (Herbicidal ratio of 90% or more (almost completely withered))
Abutilon theophrasti
  M (Abutilon theophrasti) herbicidal effect grade: 4 (Herbicidal ratio of 70% or higher and lower than 90%)
Amaranthus retroflexus
  N (Amaranthus retroflexus) herbicidal effect grade: 5 (Herbicidal ratio of 90% or more (almost completely withered))
Avena fatua
  I: Avena fatua, herbicidal effect grade: 5 (Herbicidal ratio of 90% or more (almost completely withered))
Monochoria vaginalis
  Herbicidal effect grade, C: Monochoria vaginalis: 0 (Herbicidal ratio of 5% or lower (almost no effect))
Wheat [3]
  e: wheat, effect on crop grade: 5 (Herbicidal ratio of 90% or more (almost completely withered))

## CC(CC1CC(O)=C(c2c(C)cc(C)cc2C)C1=O)=NOCC(=O)N1CCOCC1 (centres unmarked) [1-025]
soybean
  d: soybean, effect on crop grade: 3 (Herbicidal ratio of 40% or higher and lower than 70%)
Stellaria media
  P (Stellaria media) herbicidal effect grade: 0 (Herbicidal ratio of 5% or lower (almost no effect))
beet
  f: beet, effect on crop grade: 0 (Herbicidal ratio of 5% or lower (almost no effect))
rice
  b (directly sowed rice plant) effect on crop grade: 5 (Herbicidal ratio of 90% or more (almost completely withered))
Cyperus difformis
  herbicidal effect on E, grade 0-5: 5 (Herbicidal ratio of 90% or more (almost completely withered))
Setaria viridis
  G (Setaria viridis) herbicidal effect grade: 5 (Herbicidal ratio of 90% or more (almost completely withered))
Digitaria ciliaris
  F: Digitaria ciliaris, herbicidal effect grade: 5 (Herbicidal ratio of 90% or more (almost completely withered))
Apera spica-venti
  L (Apera spica-venti) herbicidal effect grade: 5 (Herbicidal ratio of 90% or more (almost completely withered))
Alopecurus myosuroides
  J: Alopecurus myosuroides, herbicidal effect grade: 5 (Herbicidal ratio of 90% or more (almost completely withered))
Wheat [1]
  e (wheat) effect on crop grade: 0 (Herbicidal ratio of 5% or lower (almost no effect))
[2]
  effect on crop b (directly sowed rice plant), grade 0-5: 5 (Herbicidal ratio of 90% or more (almost completely withered))
Abutilon theophrasti
  M (Abutilon theophrasti) herbicidal effect grade: 0 (Herbicidal ratio of 5% or lower (almost no effect))
Amaranthus retroflexus
  N (Amaranthus retroflexus) herbicidal effect grade: 0 (Herbicidal ratio of 5% or lower (almost no effect))
Avena fatua
  I: Avena fatua, herbicidal effect grade: 5 (Herbicidal ratio of 90% or more (almost completely withered))
Monochoria vaginalis
  Herbicidal effect grade, C: Monochoria vaginalis: 0 (Herbicidal ratio of 5% or lower (almost no effect))
Wheat [3]
  e: wheat, effect on crop grade: 4 (Herbicidal ratio of 70% or higher and lower than 90%)

## CON=C(CC1CC(O)=C(c2c(C)cc(C)cc2C)C1=O)C(C)(C)C (centres unmarked) [1-059]
soybean
  d: soybean, effect on crop grade: 0 (Herbicidal ratio of 5% or lower (almost no effect))
Stellaria media
  P (Stellaria media) herbicidal effect grade: 0 (Herbicidal ratio of 5% or lower (almost no effect))
beet
  f: beet, effect on crop grade: 0 (Herbicidal ratio of 5% or lower (almost no effect))
rice
  b (directly sowed rice plant) effect on crop grade: 4 (Herbicidal ratio of 70% or higher and lower than 90%)
Cyperus difformis
  herbicidal effect on E, grade 0-5: 3 (Herbicidal ratio of 40% or higher and lower than 70%)
Setaria viridis
  G (Setaria viridis) herbicidal effect grade: 4 (Herbicidal ratio of 70% or higher and lower than 90%)
Digitaria ciliaris
  F: Digitaria ciliaris, herbicidal effect grade: 1 (Herbicidal ratio of 5% or higher and lower than 20%)
Apera spica-venti
  L (Apera spica-venti) herbicidal effect grade: 5 (Herbicidal ratio of 90% or more (almost completely withered))
Alopecurus myosuroides
  J: Alopecurus myosuroides, herbicidal effect grade: 4 (Herbicidal ratio of 70% or higher and lower than 90%)
Wheat [1]
  e (wheat) effect on crop grade: 0 (Herbicidal ratio of 5% or lower (almost no effect))
[2]
  effect on crop b (directly sowed rice plant), grade 0-5: 5 (Herbicidal ratio of 90% or more (almost completely withered))
Abutilon theophrasti
  M (Abutilon theophrasti) herbicidal effect grade: 1 (Herbicidal ratio of 5% or higher and lower than 20%)
Amaranthus retroflexus
  N (Amaranthus retroflexus) herbicidal effect grade: 0 (Herbicidal ratio of 5% or lower (almost no effect))
Avena fatua
  I: Avena fatua, herbicidal effect grade: 4 (Herbicidal ratio of 70% or higher and lower than 90%)
Monochoria vaginalis
  Herbicidal effect grade, C: Monochoria vaginalis: 0 (Herbicidal ratio of 5% or lower (almost no effect))
Wheat [3]
  e: wheat, effect on crop grade: 0 (Herbicidal ratio of 5% or lower (almost no effect))

## CCCCCCCON=C(C)CC1CC(O)=C(c2c(C)cc(C)cc2C)C1=O (centres unmarked) [1-054]
soybean
  d: soybean, effect on crop grade: 0 (Herbicidal ratio of 5% or lower (almost no effect))
Stellaria media
  P (Stellaria media) herbicidal effect grade: 0 (Herbicidal ratio of 5% or lower (almost no effect))
beet
  f: beet, effect on crop grade: 0 (Herbicidal ratio of 5% or lower (almost no effect))
rice
  b (directly sowed rice plant) effect on crop grade: 5 (Herbicidal ratio of 90% or more (almost completely withered))
Cyperus difformis
  herbicidal effect on E, grade 0-5: 0 (Herbicidal ratio of 5% or lower (almost no effect))
Setaria viridis
  G (Setaria viridis) herbicidal effect grade: 5 (Herbicidal ratio of 90% or more (almost completely withered))
Digitaria ciliaris
  F: Digitaria ciliaris, herbicidal effect grade: 2 (Herbicidal ratio of 20% or higher and lower than 40%)
Apera spica-venti
  L (Apera spica-venti) herbicidal effect grade: 1 (Herbicidal ratio of 5% or higher and lower than 20%)
Alopecurus myosuroides
  J: Alopecurus myosuroides, herbicidal effect grade: 4 (Herbicidal ratio of 70% or higher and lower than 90%)
Wheat [1]
  e (wheat) effect on crop grade: 0 (Herbicidal ratio of 5% or lower (almost no effect))
[2]
  effect on crop b (directly sowed rice plant), grade 0-5: 5 (Herbicidal ratio of 90% or more (almost completely withered))
Abutilon theophrasti
  M (Abutilon theophrasti) herbicidal effect grade: 0 (Herbicidal ratio of 5% or lower (almost no effect))
Amaranthus retroflexus
  N (Amaranthus retroflexus) herbicidal effect grade: 0 (Herbicidal ratio of 5% or lower (almost no effect))
Avena fatua
  I: Avena fatua, herbicidal effect grade: 3 (Herbicidal ratio of 40% or higher and lower than 70%)
Monochoria vaginalis
  Herbicidal effect grade, C: Monochoria vaginalis: 0 (Herbicidal ratio of 5% or lower (almost no effect))
Wheat [3]
  e: wheat, effect on crop grade: 0 (Herbicidal ratio of 5% or lower (almost no effect))
